From patent US9371336B2, “Compounds for treating spinal muscular atrophy” (PTC Therapeutics Inc., priority 2012, dated 2016) come the findings set out here.

Data set [1] relates to SMN2 minigene mRNA (SMN2-A minigene construct). Kind of data set: SMN2 minigene mRNA splicing RT-qPCR assay in cultured cells. The format is cell-based, human. As to conditions: Homo sapiens, HEK293-H; HEK293H cells stably transfected with SMN2-A minigene, 24 hours, 7-point concentration data; concentration giving 1.5-fold SMN2 full length mRNA relative to vehicle-treated cells; read-out: EC1.5x for production of full length SMN2 mRNA. The gist of the method:
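Full-length SMN2 minigene mRNA, measured by exon 7/luciferase-specific RT-qPCR that excludes endogenous SMN1/SMN2, was normalized to GAPDH and expressed relative to vehicle-treated cells via modified ΔΔCt. Stably transfected HEK293H cells received compound (7-point, 3.16-fold series, duplicates) for 24 h at 37 °C.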

Another data set deals with Smn protein. As to the kind of experiment: Smn protein assay (HTRF) in cultured cells (SMA patient fibroblasts GM03813). The format is cell-based, human. As to conditions: 48 hours; for EC1.5x for Smn protein expression: SMA patient fibroblast cells (GM03813), HTRF, 7-point concentration data, concentration producing 1.5 times Smn protein vs DMSO vehicle control; for maximum fold (Fold) increase of Smn protein: SMA patient fibroblast cells, 7-point concentration curve, relative to vehicle control. The procedure, abridged:
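Smn level is expressed as fold over vehicle, from blank-corrected ΔF of the 665/620 nm HTRF ratio. Readout used anti-SMN d2 and kryptate antibodies on RIPA lysates. GM03813 SMA fibroblasts had 48 h exposure at 37° C to seven 3.16-fold compound dilutions, run in triplicate.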

One may read the melting point as the temperature of the solid-liquid transition. For `C[C@@H]1CN(C)[C@@H](C)CN1c1ccc2cc(-c3cn4cccc(Cl)c4n3)c(=O)oc2n1` [Cpd 98, 3-(8-chloroimidazo[1,2-a]pyridin-2-yl)-7-[(2R,5S)-2,4,5-trimethylpiperazin-1-yl]-2H-pyrano [2,3-b]pyridin-2-one], the melting point lay in the range of 191 to 196 °C. In addition, the EC (1.5-fold) in data set [1] was 0.1 to 0.3 µM. In the data set with Smn protein, the “EC1.5x for Smn protein expression” value is “** (an EC1.5× between >1 and ≦3 μM is indicated by two stars (**))”; the “maximum fold (Fold) increase of Smn protein” value (“maximum fold (Fold) increase” for short) was “**** (a fold increase between >1.5 and ≦1.65 is indicated by four stars (****))”.
`C[C@@H]1CN(c2ccc3cc(-c4cn5ccccc5n4)c(=O)oc3n2)C[C@H](C)N1` [Cpd 60, 7-[(3R,5S)-3,5-dimethylpiperazin-1-yl]-3-(imidazo[1,2-a]pyridin-2-yl)-2H-pyrano[2,3-b]pyridin-2-one]: the melting point is 283 to 285 °C. The EC (1.5-fold) in data set [1] is at most 0.1 µM. In addition, in the data set with Smn protein, the “EC1.5x for Smn protein expression” value is “** (an EC1.5× between >1 and ≦3 μM is indicated by two stars (**))”; the “maximum fold (Fold) increase” value was “*** (a fold increase between >1.35 and ≦1.5 is indicated by three stars (***))”.
Regarding `C[C@@H]1CN(c2ccc3cc(-c4cn5cccc(F)c5n4)c(=O)oc3n2)C[C@H](C)N1` [Cpd 76, 7-[(3R,5S)-3,5-dimethylpiperazin-1-yl]-3-(8-fluoroimidazo[1,2-a]pyridin-2-yl)-2H-pyrano[2,3-b]pyridin-2-one], the melting point is 247 to 249 °C. Further, the EC (1.5-fold) in data set [1] is at most 0.1 µM. Besides, in the data set with Smn protein, the “EC1.5x for Smn protein expression” value was “**** (an EC1.5×≦0.3 μM is indicated by four stars (****))” and the “maximum fold (Fold) increase” value is given as “***** (a fold increase >1.65 is indicated by five stars (*****))”.
As for `O=c1oc2nc(N3CCNCC3)ccc2cc1-c1nc2ccccc2s1` [Cpd 1, 3-(1,3-benzothiazol-2-yl)-7-(piperazin-1-yl)-2H-pyrano[2,3-b]pyridin-2-one], the melting point lay within 258 to 260 °C. Moreover, the EC (1.5-fold) in data set [1] is 0.1 to 0.3 µM. Further, in the data set on Smn protein, the “EC1.5x for Smn protein expression” value is “*** (an EC1.5× between >0.3 μM and ≦1 μM is indicated by three stars (***))”; the “maximum fold (Fold) increase” value was “*** (a fold increase between >1.35 and ≦1.5 is indicated by three stars (***))”.
Turning to `Cc1ccc2nc(-c3cc4ccc(N5C[C@H](C)NC[C@H]5C)nc4oc3=O)cn2c1` [Cpd 87, 7-[(2R,5S)-2,5-dimethylpiperazin-1-yl]-3-(6-methylimidazo[1,2-a]pyridin-2-yl)-2H-pyrano[2,3-b]pyridin-2-one], the melting point lay in the range of 225 to 229 °C. For the same compound, the EC (1.5-fold) in data set [1] is 0.1 to 0.3 µM. In addition, in the data set with Smn protein, the “EC1.5x for Smn protein expression” value is reported as “**** (an EC1.5×≦0.3 μM is indicated by four stars (****))” and the “maximum fold (Fold) increase” value is on record as “***** (a fold increase >1.65 is indicated by five stars (*****))”.
`Cc1cn2cc(-c3cc4ccc(N5CCCNCC5)nc4oc3=O)nc2c(C)n1.Cl` [Cpd 89, 7-(1,4-diazepan-1-yl)-3-(6,8-dimethylimidazo[1,2-a]pyrazin-2-yl)-2H-pyrano[2,3-b]pyridin-2-one hydrochloride]: the melting point was in the range of 273 to 276 °C. In addition, in data set [1], the EC (1.5-fold) is at most 0.1 µM. Also, in the data set on Smn protein, the “EC1.5x for Smn protein expression” value is given as “**** (an EC1.5×≦0.3 μM is indicated by four stars (****))”; the “maximum fold (Fold) increase” value is “**** (a fold increase between >1.5 and ≦1.65 is indicated by four stars (****))”.
Compound `C[C@@H]1CN(c2ccc3cc(-c4cn5ccccc5n4)c(=O)oc3n2)C[C@H](C)N1C` [Cpd 121, 3-(imidazo[1,2-a]pyridin-2-yl)-7-[(3R,5S)-3,4,5-trimethylpiperazin-1-yl]-2H-pyrano[2,3-b]pyridin-2-one] displayed a melting point of 242 to 246 °C. In addition, in data set [1], the EC (1.5-fold) was at most 0.1 µM. In the data set on Smn protein, the “EC1.5x for Smn protein expression” value was “* (An EC1.5× for Smn protein expression between >3 μM and ≦10 μM is indicated by one star (*))”; the “maximum fold (Fold) increase” value is “*** (a fold increase between >1.35 and ≦1.5 is indicated by three stars (***))”.
In turn, `Cc1ccc2nc(-c3cc4ccc(N5CCCNCC5)nc4oc3=O)cn2c1` [Cpd 66, 7-(1,4-diazepan-1-yl)-3-(6-methylimidazo[1,2-a]pyridin-2-yl)-2H-pyrano[2,3-b]pyridin-2-one] showed a melting point of 240 to 243 °C. Moreover, the EC (1.5-fold) in data set [1] was in the range of 0.1 to 0.3 µM. In the data set on Smn protein, the “EC1.5x for Smn protein expression” value is “** (an EC1.5× between >1 and ≦3 μM is indicated by two stars (**))”; the “maximum fold (Fold) increase” value was “*** (a fold increase between >1.35 and ≦1.5 is indicated by three stars (***))”.
Compound `Cc1ccc2nc(-c3cc4ccc(N5C[C@@H]6C[C@H]5CN6C)nc4oc3=O)cn2c1` [Cpd 125, 7-[(1S,4S)-5-methyl-2,5-diazabicyclo[2.2.1]hept-2-yl]-3-(6-methylimidazo[1,2-a]pyridin-2-yl)-2H-pyrano[2,3-b]pyridin-2-one] yielded a melting point of 211 to 213 °C. Further, in data set [1], the EC (1.5-fold) fell in the range of 0.1 to 0.3 µM. For the same compound, in the data set with Smn protein, the “EC1.5x for Smn protein expression” value is reported as “**** (an EC1.5×≦0.3 μM is indicated by four stars (****))” and the “maximum fold (Fold) increase” value is on record as “***** (a fold increase >1.65 is indicated by five stars (*****))”.
`CCN1CCCN(c2ccc3cc(-c4cn5ccccc5n4)c(=O)oc3n2)CC1` [Cpd 127, 7-(4-ethyl-1,4-diazepan-1-yl)-3-(imidazo[1,2-a]pyridin-2-yl)-2H-pyrano[2,3-b]pyridin-2-one] gave a melting point of 285 to 288 °C. The EC (1.5-fold) in data set [1] is at most 0.1 µM. Besides, in the data set with Smn protein, the “EC1.5x for Smn protein expression” value was “*** (an EC1.5× between >0.3 μM and ≦1 μM is indicated by three stars (***))”; the “maximum fold (Fold) increase” value is “**** (a fold increase between >1.5 and ≦1.65 is indicated by four stars (****))”.
Take `O=c1oc2nc(N3CCN(CC(O)CO)CC3)ccc2cc1-c1nc2ccccc2s1` (centres unmarked) [Cpd 26, 3-(1,3-benzothiazol-2-yl)-7-[4-(2,3-dihydroxypropyl)piperazin-1-yl]-2H-pyran [2,3-b]pyridin-2-one]: the melting point lay in the range of 236 to 239 °C. The EC (1.5-fold) in data set [1] fell in the range of 1 to 3 µM. The “maximum fold (Fold) increase” value in the data set with Smn protein is “** (a fold increase between >1.2 and ≦1.35 is indicated by two stars (**))”.
In turn, `Cc1ccc2nc(-c3cc4ccc(N5CCNCC5)nc4oc3=O)cn2c1.Cl` [Cpd 24, 3-(6-methylimidazo[1,2-a]pyridin-2-yl)-7-(piperazin-1-yl)-2H-pyrano[2,3-b]pyridin-2-one hydrochloride] came in with a melting point of 218 to 222 °C. The EC (1.5-fold) in data set [1] fell in the range of 0.3 to 1 µM. In addition, the “maximum fold (Fold) increase” value in the data set on Smn protein is “** (a fold increase between >1.2 and ≦1.35 is indicated by two stars (**))”.
Take `Cc1ccc2nc(-c3cc4ccc(N5CCN(C)[C@H](C)C5)nc4oc3=O)cn2c1` [Cpd 75, 7-[(3R)-3,4-dimethylpiperazin-1-yl]-3-(6-methylimidazo[1,2-a]pyridin-2-yl)-2H-pyrano[2,3-b]pyridin-2-one]: the melting point lay in the range of 247 to 251 °C. Also, in data set [1], the EC (1.5-fold) lay in the range of 0.1 to 0.3 µM. Besides, in the data set with Smn protein, the “EC1.5x for Smn protein expression” value was “*** (an EC1.5× between >0.3 μM and ≦1 μM is indicated by three stars (***))”; the “maximum fold (Fold) increase” value is “**** (a fold increase between >1.5 and ≦1.65 is indicated by four stars (****))”.
